Measured values reported in ChEMBL document CHEMBL1158439, “Non-isotopic dual parameter competition assay suitable for high-throughput screening of histone deacetylases” (Bioorg Med Chem Lett, 2009).

What was measured:
[1] = target: T1, Histone deacetylase-like amidohydrolase (Alcaligenes sp. (strain DSM 11172) (Bordetella sp. (strain FB188)), UniProt Q70I53); assay: Displacement of Atto700-HA from Bordetella / Alcaligenes strain FB188 HDAH by fluorescence anisotropy; design: species or system Alcaligenaceae bacterium FB188
T1 sequence (Q70I53 whole entry): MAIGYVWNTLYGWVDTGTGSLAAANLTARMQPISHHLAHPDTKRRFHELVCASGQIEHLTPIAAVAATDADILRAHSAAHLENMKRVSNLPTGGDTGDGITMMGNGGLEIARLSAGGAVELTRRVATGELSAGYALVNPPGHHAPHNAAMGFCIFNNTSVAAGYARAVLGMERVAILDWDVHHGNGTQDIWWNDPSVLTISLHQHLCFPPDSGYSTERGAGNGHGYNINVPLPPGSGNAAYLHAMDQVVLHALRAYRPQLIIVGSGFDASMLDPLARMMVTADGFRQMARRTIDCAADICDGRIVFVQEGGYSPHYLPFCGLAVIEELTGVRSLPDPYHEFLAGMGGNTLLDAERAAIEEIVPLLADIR

[2] = target: T1, Histone deacetylase-like amidohydrolase (Alcaligenes sp. (strain DSM 11172) (Bordetella sp. (strain FB188)), UniProt Q70I53); assay: Inhibition of Bordetella / Alcaligenes strain FB188 HDAH by fluorogenic enzyme assay; design: species or system Alcaligenaceae bacterium FB188
[3] = target: T1, Histone deacetylase-like amidohydrolase (Alcaligenes sp. (strain DSM 11172) (Bordetella sp. (strain FB188)), UniProt Q70I53); assay: Binding affinity to Bordetella / Alcaligenes strain FB188 HDAC by FRET assay; design: species or system Alcaligenaceae bacterium FB188
[4] = Displacement of Atto700-HA from Bordetella / Alcaligenes strain FB188 […] by fluorescence anisotropy; design: species or system Alcaligenaceae bacterium FB188
[5] = Inhibition of HDAC from RT extract
[6] = Inhibition of Bordetella / Alcaligenes strain FB188 HDAC6 by fluorescence polarization assay; design: species or system Alcaligenaceae bacterium FB188
[7] = Inhibition of Bordetella / Alcaligenes strain FB188 HDAC6 by fluorogenic enzyme assay
[8] = target: T1, Histone deacetylase-like amidohydrolase (Alcaligenes sp. (strain DSM 11172) (Bordetella sp. (strain FB188)), UniProt Q70I53); assay: Inhibition of Bordetella / Alcaligenes strain FB188 HDAH by fluorimetric assay; design: species or system Alcaligenaceae bacterium FB188

| SMILES | Ki [1] [nM] | IC50 [2] [nM] | Ki [3] [nM] | IC50 [4] [nM] | IC50 [5] [nM] | IC50 [6] [nM] | IC50 [7] [nM] | IC50 [8] [nM] |
| --- | --- | --- | --- | --- | --- | --- | --- | --- |
| CCCCCC1OC1CC#CCCCCCCCC(=O)O (configuration not stated) | 20000 | 9200 | 4300 | > 20000 | – | – | – | – |
| O=C(CCCCCc1nc2cc3ccccc3cc2[nH]1)C(F)(F)F | 1400 | 600 | – | 70 | 600 | – | – | – |
| CCCCCCCCCCCC[C@@H](C)O[C@@H]1O[C@H](CO)[C@@H](O)[C@H](O)[C@H]1O[C@@H]1O[C@H](COC(C)=O)[C@@H](O)[C@H](O)[C@H]1O | 10000 | 6200 | 2000 | > 50000 | > 50000 | – | – | – |
| CCC1=C(OC)C(=O)C(CCCCCCCCCCC(C)=O)=C(C)C1=O | 1100 | 600 | – | > 50000 | > 50000 | – | – | – |
| CCC(=O)CCCCC[C@@H]1NC(=O)[C@H]2CCCCN2C(=O)[C@H]([C@@H](C)CC)NC(=O)[C@H](Cc2cn(OC)c3ccccc23)NC1=O [APICIDIN] | 9200 | – | – | – | – | 670 | – | – |
| Nc1ccccc1NC(=O)c1ccc(CNC(=O)OCc2cccnc2)cc1 [ENTINOSTAT] | > 100000 | 118000 | – | – | 8800 | – | > 10000 | – |
| CC(/C=C/C(=O)NO)=C\[C@@H](C)C(=O)c1ccc(N(C)C)cc1 [TRICHOSTATIN] | 700 | – | – | – | 1 | 17 | – | 1200 |
